From US20140322315A1, “CYSTEAMINE AND/OR CYSTAMINE FOR TREATING ISCHEMIC INJURY” (The Regents of the University of California, priority 2011, published 2014)
Several values for one entry are separate records, joined by “and”; a condition that tells them apart may be missing. Equal entries are not always repeated. Entries after “also recorded” stand apart in the source; their conditions may differ.

Legend:
[1] = target: T1, adiponectin multimers (Homo sapiens, UniProt Q15848); assay: Lean control / healthy subjects' serum incubated 1 hour with 90 μM cysteamine, adiponectin multimers; assay type: biochemical
T1 construct: from tissue; host or cells: human serum (pretreatment NAFLD subjects; adults without NAFLD)
T1 sequence (Q15848 19-244): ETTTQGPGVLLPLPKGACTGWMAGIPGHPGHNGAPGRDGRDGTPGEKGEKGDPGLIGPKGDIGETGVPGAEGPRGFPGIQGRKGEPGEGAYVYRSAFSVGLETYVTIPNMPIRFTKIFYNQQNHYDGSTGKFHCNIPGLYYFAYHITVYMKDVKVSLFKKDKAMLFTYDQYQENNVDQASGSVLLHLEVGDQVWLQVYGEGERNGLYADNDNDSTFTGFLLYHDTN
Method: (§1) Total and multimeric adiponectin levels were measured in serum taken from: (1) subject with NAFLD collected at 0 and 24 wks of cysteamine therapy and again 16 wks after stopping therapy (i.e., 40 weeks); (2) pretreated 0-week subjects with NAFLD and adults without NAFLD at room temperature and at 37° C. and also after incubation with cysteamine 90 μM for 1 hour at 37° C.; and (3) pretreated 0-week subjects with NAFLD before and after incubation with cysteamine at varying concentrations (15, 30, 45, 60, 90, 120 μM) for 1 hour at 37° C. to establish dose-response profile.
(§2) Sodium dodecyl sulfate polyacrylamide gel electrophoresis (SDS-PAGE) was performed according to standard Laemmli's method. Sample buffer for non-reducing, non-heat denaturing conditions contained 3% SDS; 50 mmol/1 Tris-HCL, pH 6.8 and 20% glycerol. Proteins were separated using 3-8% Tris-Acetate Gels (Invitrogen, Carlsbad Calif.) with Tris-Acetate running buffer per manufacturer instructions. For immunoblotting, proteins were transferred to nitrocellulose membranes. Membranes were washed with Tween (Tris-buffered Saline, 0.1% […]) and incubated with monoclonal antibody (1:500 BD Transduction Laboratories, San Diego, Calif.). After washing with Tris-buffered saline with 0.1% Tween (4×5 min) membranes were incubated with L-COR secondary antibodies (LI-COR Biotechnology, Lincoln Nebr.) at 1:20,000. Adiponectin multimers were detected and quantified using the LICOR imager and software analysis program. Relative distribution of adiponectin multimers was determined by dividing band density by total density (cellular adiponectin) or by total adiponectin as determined by ELISA (Millipore, Billerica, Mass.). The percentage of adionectin multimer was then multiplied by the total adiponectin level to calculate absolute oligomer value.
In another experiment, 25 μl total sample volume (5 μl diluted serum+15 μl water+5 μl 5×LB) was incubated with or without cysteamine at 37° C.×1 hr. A control was prepared without cysteamine and incubated at room temperature for 1 hour on the bench. The preparations were then run on 2×15-well 1.5 mm 3-8% Tris-acetate gels. Primary antibody—mouse anti-adiponectin 1:500, overnight at 4° C. and secondary antibody—goat anti-mouse IR800 1:20,000.

[2] = tested on: circulating leukocytes; conditions: Dohil et al., J. Pediatr 2006; cited from earlier work
[3] = tested on: subjects with NAFLD; assay: Pilot study of EC-cysteamine in children with NAFLD: ALT, AST, BMI, leptin, responders; assay type: in vivo, human; conditions: for mean AST / mean ALT: all study subjects; for mean AST: baseline 60.9 IU/L; for mean ALT: baseline 123 IU/L; for mean leptin level: responders, baseline 21.3 ng/mL
Text: Eleven children ≧10 years, with biopsy-proven NAFLD and an alanine aminotransferase (ALT) level ≧60 IU/L, were enrolled. They were either newly diagnosed or had not received specific therapy for NAFLD such as vitamin E or insulin-sensitizing drugs for at least 3 months before entering the study. All had undertaken standard of care lifestyle changes involving diet and exercise for more than 3 months. The study's primary outcome measure was normalization (≦40 IU/L) or 50% reduction in baseline serum ALT at 24 weeks of EC-cysteamine therapy; these subjects were deemed responders.
Subjects were treated for 24 wks and remained monitored for 24 weeks following its discontinuation. The mean EC-cysteamine dose ingested was 654 mg twice daily or 15.2 mg/kg/day (median dose 900 mg) for 24 wks.
During the pilot study blood was collected at pre-defined intervals. Serum was stored at −80° C. until time of assay. Adequate serum volumes were available in 10 of the 11 subjects with NAFLD and only up to 16 weeks post-treatment.

[4] = target: T1, adiponectin multimers; assay: Dose response profile: NAFLD serum incubated with varying cysteamine concentrations, adiponectin multimers; assay type: biochemical; conditions: 1 hour at 37° C.
Method: as §1, §2

[5] = tested on: LAD artery ligation ischemia/reperfusion; assay: Myocardial ischemia/reperfusion (LAD artery ligation) in mice: infarct area, echocardiography; assay type: in vivo, mice (C57BL/6); set-up: IA (Ischemic Area): unit not given beside the values
Method: To analyze ischemic damage and treatment with cysteamine a study in mice (C57BL/6-Male-12 weeks, 25 g) that are either pre-treated or naïve to cysteamine bitartrate was performed as follows.
Pre-treated animals received intra-peritoneal cysteamine, 60 mg/kg twice (120 mg/kg/day) 2 hours before surgery for LAD artery ligation. Following a 60 minute ligation period the obstruction was removed and another dose of cysteamine was given immediately at the time of reperfusion and also twice daily injections for 4 days following reperfusion. A control group received the same volumes of control IV solution injected instead of cysteamine. Acceptable volumes of blood were collected at baseline, and at predetermined time points after the ischemic insult in order to determine levels of surrogate markers of inflammation and plasma cysteamine. […] Before sacrifice, the LAD was re-occluded and Evan's Blue was injected through JVC in order to delineate the non-ischemic area. […] Echocardiography provided ventricular volume data as well as wall function. Hemodynamic studies provided muscle contractility data (specifically systolic data).
So far seven mice were studied. Four received control solution and 3 received cysteamine. […] This is a reduction of 13%.

[6] = target: T1, adiponectin multimers; assay: Pretreatment serum of subjects with NAFLD incubated 1 hour with cysteamine, adiponectin multimers; assay type: biochemical
Method: as §1, §2

[7] = lean control serum, 37° C. + 90 μM cysteamine, 1 hr
[8] = NAFLD serum (n=10), cysteamine 1 hour at 37° C. (45 μM in FIG. 13), P<0.0001

SMILES: NCCS [cysteamine, Cysteamine]
- mean percentage of total adiponectin comprised of LMW after incubation ([1]; healthy subjects, 90 μM cysteamine 1 hour, before 11.1%): 18.0%
- mean percentage of total adiponectin comprised of HMW after incubation ([1]; healthy subjects, 90 μM cysteamine 1 hour, before 42.9%): 42.7%
- mean percentage of total adiponectin comprised of MMW after incubation ([1]; healthy subjects, 90 μM cysteamine 1 hour, before 46.0%): 39.3%
- LMW adiponectin absolute level change [1, 7]: no significant change
- MMW adiponectin absolute level change [1, 7]: significant decrease
- LMW adiponectin mean percent change vs baseline ([1]; lean control/healthy serum, 90 μM cysteamine, 1 hr, P<0.005): increase; also recorded: significant percent change
- MMW adiponectin mean percent change vs baseline ([1]; lean control/healthy serum, 90 μM cysteamine, 1 hr, P<0.01): reduction; also recorded: significant percent change
- HMW adiponectin level change ([1]; lean control/healthy serum, 37° C. + 90 μM cysteamine, 1 hr): unchanged; also recorded: no significant change
- intracellular cystine levels in circulating leukocytes [2]: lowering
- responders (ALT normalization ≦40 IU/L or 50% reduction at 24 weeks) ([3]; 24 weeks EC-cysteamine therapy, subjects with serum analyzed): Seven of the 10
- mean AST ([3]; 24 weeks of treatment, P=0.001): 32 IU/L
- mean ALT ([3]; 24 weeks of treatment, P=0.003): 55 IU/L
- mean AST ([3]; 40 weeks (16 weeks off therapy), P=0.012): 35 IU/L
- mean ALT ([3]; 40 weeks (16 weeks off therapy), P=0.055): 71 IU/L
- mean leptin level ([3]; 24 weeks, P=0.04): 15.7 ng/mL
- mean leptin level ([3]; 40 weeks): 19.5 ng/mL
- HMW level vs baseline ([4]; 120 μM cysteamine): reductions
- MMW level vs baseline ([4]; 120 μM cysteamine): reductions
- greatest percent increase in LMW ([4]; 120 μM cysteamine): 77%
- MMW levels vs baseline ([4]; all cysteamine concentrations (15-120 μM)): lower than baseline
- mean LMW level increase above baseline ([4]; all cysteamine concentrations used (15-120 μM)): > 60%
- HMW level increase above baseline ([4]; cysteamine 15, 30, 45, and 60 μM): about 10%
- IA (Ischemic Area) ([5]; MEAN of 3 mice): 7.99
- IA/LV (cysteamine) (%) ([5]; MEAN of 3 mice, control 17.66%): 8.12%
- IA/AAR (cysteamine) (%) ([5]; MEAN of 3 mice, control 58.57%): 33.24%
- mean end diastolic volume (EDV), 24 h vs 72 h ([5]; cysteamine group, p=0.032): significant difference; also recorded: significant reduction
- relative amounts of ischemic damage compared with control groups ([5]; cysteamine treated vs control): about half
- IA/AAR (cysteamine) (%) ([5]; individual mice (raw data)): 38.02% and 34.78% and 26.92%
- IA/LV (cysteamine) (%) ([5]; individual mice (raw data)): 12.66% and 6.24% and 5.47%
- IA (Ischemic Area) ([5]; individual mice (raw data), cysteamine 60 mg/kg twice daily): 9.37 and 11.14 and 3.46
- IA/AAR ratio, cysteamine vs control group ([5]; p=0.004): significant reduction; also recorded: significant difference
- IA/LV ratio, cysteamine vs control group ([5]; p=0.008): significant reduction; also recorded: significant difference
- percentage change in ESV between 24 h and 72 h, vs control group ([5]; p=0.039): significantly greater percentage reduction
- percentage change in EDV between 24 h and 72 h, vs control group ([5]; p=0.04): significantly greater percentage reduction; also recorded: significant difference
- HMW adiponectin level change ([6]; NAFLD pretreatment serum, cysteamine 1 hour at 37° C.): unchanged
- LMW adiponectin mean percent change vs pretreatment [6, 8]: increase
- MMW adiponectin mean percent change vs pretreatment [6, 8]: significant reduction
- mean percentage of total adiponectin comprised of HMW after incubation ([6]; NAFLD serum, cysteamine 1 hour at 37° C., before 8.2%): 8.6%
- mean percentage of total adiponectin comprised of LMW after incubation ([6]; NAFLD serum, cysteamine 1 hour at 37° C., before 28.5%): 36.7%
- mean percentage of total adiponectin comprised of MMW after incubation ([6]; NAFLD serum, cysteamine 1 hour at 37° C., before 63.3%): 54.7%
